What is called mortality is the percentage killed. Usually LD50 stands for the dose expected to kill half of the subjects tested.

We go through two compounds from patent publication US4444786A, “Carbamate derivatives, insecticidal, miticidal or nematocidal compositions containing the same, and process for preparing the same” (priority 1981, dated 1984).

Data set [1] has as its system tobacco cutworm (Spodoptera litura). The data set can be described thus: Test Example 1: mortality of third-instar larvae of tobacco cutworm on cabbage, three days. In kind it is in vivo. Particulars: 72 h, 100 ppm active ingredient, 3 days. The procedure:
Ten third-instar larvae of tobacco cutworm (Spodoptera litura) were placed on a cabbage (one-month-old seedlings) planted in a pot, and a 50% emulsion of the compound to be tested was diluted to a specified concentration and applied to the leaves of the plant to fully wet them. The test compound of each specified concentration was tested on two pots.

The test system of data set [2] is green rice leafhopper (Nephotettix cincticeps). In words: Test Example 2: mortality of female adults of green rice leafhopper on paddy rice, three days. In kind it is in vivo. Particulars: 72 h, 3 days. The procedure: An emulsion of specified concentration was prepared from a 50% wettable powder of the compound to be tested and applied to the leaves of paddy rice (one-month-old seedlings) planted in a pot to fully wet the leaves. After air-drying the emulsion, the pot was covered with a net cage, into which 10 female adults of green rice leafhopper (Nephotettix cincticeps) were released. The compound of each specified concentration was tested on two pots.

Data set [3] has as its system house fly (Musca domestica). The data set can be described thus: Test Example 4: local application to house fly, LD50 by Probit method. Format: in vivo. Particulars: topical, 24 hours. The procedure:
The compound to be tested was dissolved in a predetermined amount of acetone. The solution was diluted to various concentrations and locally applied to house fly (Musca domestica).

Data set [4] can be described thus: Test Example 5: acute toxicity by oral administration against male mice. Particulars: mouse, in vivo, seventh day, Litchfield-Wilcoxon method. The procedure:
The compound to be tested was evaluated in terms of acute toxicity by oral administration against male mice.

The test system of a further data set is noxious insects. Particulars: known, background; cited from earlier work.
The next data set has as its system warm-blooded animals. Particulars: known, background; cited from earlier work.
Data set [5] deals with southern root-knot nematode (Meloidogyne incognita). In words: Test Example 3: formation of nodules on tomato roots in soil contaminated with nematode larvae, one month. In kind it is in vivo. From the text: Granules containing 10% of the compound to be tested were mixed, in a specified amount, with soil contaminated with larvae of southern root-knot nematode (Meloidogyne incognita), and tomato seedlings were immediately transplanted in the soil. One month later, the roots of the plant were checked for the formation of nodules. Two test areas, 2×2 m^2 each, were used for the compound as applied in each specified amount.

In turn, `CNC(=O)ON=C(C)SC` [Control*, S-methyl N-[(methylcarbamoyl)oxy]thioacetamidate, reference compound] showed a mortality at 100 ppm in data set [1] of 80%. The compound further yielded a mortality at 200 ppm in data set [2] (200 ppm active ingredient) of 90%. In data set [2] (400 ppm active ingredient), this compound registered a mortality at 400 ppm of 100%. This compound showed a mortality at 800 ppm in data set [2] (800 ppm active ingredient) of 100%. For the same compound, the LD50 in data set [3] stood at 6.8 mg/kg. Moreover, the LD50 at 168 h in data set [4] was found to be 16 mg/kg. The insecticidal activity result with noxious insects was “high insecticidal activity”. In addition, the “toxicity to warm-blooded animals” value in the data set on warm-blooded animals is recorded as “high toxicity to warm-blooded animals”.

For Bis(2-chloro-1-methylethyl)ethane, the “Degree of Formation of Nodules” value in data set [5] (granules (10%) applied at 10 kg/10 a) is 4 (75 to 100%); in data set [5] (granules (10%) applied at 25 kg/10 a), 4 (75 to 100%); in data set [5] (granules (10%) applied at 50 kg/10 a) it was 2 (25 to 49%).
